In test [1] the test system is PC12 cells. Put plainly: Dopamine release of differentiated PC12 cells under stress conditions (N2 hypoxia, glutamate), Example 2. It is filed as cell-based, rats. More on the design: dopamine release: dose or concentration left out as unconfirmed. The note with it: FIG. 2. The source says:
The differentiated PC12 cells described in Example 1 were distributed to various vessels and exposed to differing conditions. These conditions are defined as follows: […]
The dopamine release may even be increased if, in addition to the nitrogen atmosphere, glutamate, which represents a neurotransmitter and has a neurotoxic effect in greater doses, was given as well (group: Glu+N2).
Thus, the addition of glutamate to the cells effects an increased dopamine release, particularly when the cells are kept under hypoxic conditions.

In test [2] the test system is PC12 cells. Nature of the test: Dopamine release of differentiated PC12 cells in a hypoxic situation (helium instead of oxygen), Example 1. It is filed as cell-based, rats. The source says: An in vitro experiment with PC12 cells is concerned. These PC12 cells are dependants of a pheochromocytoma of rats. […] PC12 cells can be reproduced continuously in vitro. Following the addition of “nerve growth factor”, they start differentiating and become neurons which in many respects have the property of in vivo neurons, particularly the properties which relate to the neurotransmitter release. PC12 cells are acknowledged as neuronal model.
PC12 cells differentiated in such a manner when exposed to a hypoxic situation, release dopamine. […] If the cells are treated under these hypoxic conditions with xenon in defined concentrations over the same period of time, the neurotransmitter release will be dropped. […] If a hypoxic situation is triggered by a dose of helium instead of oxygen, the curve of the dopamine concentration will result as shown in the curve produced from the solid triangles. A maximum dopamine concentration is shown in this case after about 40 minutes. […] In the above-described experiment, the gases used were given to the cells by mixing them with the growth buffer for the cells. In this case, saturated gas buffer solutions are involved.

Molecules are shown by their SMILES.

Take `[Xe]` [xenon]: the “dopamine release compared to the corresponding (glutamate+N2) experiment” value with PC12 cells [1] (Glu+Xe: 10 M glutamate for 30 minutes of incubation in xenon) was “reduced by two-thirds”. Besides, the dopamine release entry with PC12 cells [1] (Glu+Xe: glutamate for 30 minutes of incubation in xenon) is on record as “slightly increased dopamine release”. Moreover, in the test on PC12 cells [1] (simultaneous supply of xenon, glutamate and/or hypoxic conditions), the unintentional neurotransmitter release entry is listed as “reduced many times over”. In addition, in the test with PC12 cells [2] (after the xenon is washed out, cells cannot be distinguished from untreated cells), the “reversibility of the xenon effect” value is listed as “fully reversible”. The “dopamine concentration over the time course” value in the test with PC12 cells [2] (xenon given in a hypoxic situation, saturated gas buffer solution, compared with non-stressed controls, FIG. 1A) is “virtually no longer differ from the control cell population”. The “relative dopamine concentration (dopamine release)” value with PC12 cells [2] (xenon in a hypoxic situation, compared with control cells, FIG. 1B) is given as “reduced down to values of the control cells”.

The values are drawn from US20030180375A1, “Use of xenon for treating neurointoxications” (AGA AB, priority 1999, published 2003).
